The values below come from patent US20170233414A1, “DERIVATIVES OF BODIPY” (OREGON HEALTH & SCIENCE UNIVERSITY, priority 2016, published 2017).

Like-named read-outs stand apart in the source and are kept apart here.

A short description of the series: Fluorescence properties and quantum yield measurements of the BAA library. The class given is physicochemical. Set-up: FWHM (full-width-at half max): unit not given here. How it is done: General Instruments. Synthesized sample purification was performed with an Agilent 1260 Infinity HPLC utilizing a C18 column (150mm×21.2 mm). MS (HRMS, ESI) spectra data was collected with an Agilent 6244 TOF LC/MS with diode array detector VL+ and C18 column (4.6 mm×50 mm). Absorbance and fluorescence data were measured on a SpectraMax M5 Microplate reader. NMR spectra, ^1H and ^13C, were recorded on a Bruker ARK400 spectrometer. BAA microscopy screening in cells for organelle specificity and signal-to-background ratio was completed with an Axio Zeiss Light Microscope and 63× oil immersion objective.
Fluorescence Properties and Quantum Yield Measurements. Spectroscopic characterizations were performed in anhydrous DMSO in polystyrene 96 well plate. Analysis included the maximum absorbance wavelength, maximum fluorescence emission wavelength, full-width-at half max, and quantum yield. Quantum yields (φfl) were determined by comparing the area under the emission spectrum of the BAA compound to a reference fluorophore solution at three concentrations using equation 1, where Grad represents the gradient from the plots of integrated fluorescence intensity vs absorbance at three concentrations and q is the refractive index of the solvent. Fluorescein in 0.1 M NaOH (φfl=0.91)^3 was the reference for samples with a max absorbance up to 510 nm, where an excitation of 470 nm was used with the emission integrated between 490 to 800 nm. Rhodamine B in ethanol (φfl=0.70) was the reference for samples with a max absorbance between 511-595 nm, where an excitation of 525 nm was used with the emission integrated between 545 to 800 nm. Cresyl violet in methanol (φfl=0.54)^4 was the reference for samples with a max absorbance above 595 nm, where an excitation of 570 nm was used with the emission integrated between 590 to 800 nm.

Where [1] appears, read: anhydrous DMSO, polystyrene 96 well plate.
[2] abbreviates: anhydrous DMSO, relative to reference fluorophore at three concentrations.

Consider `CCOc1ccc(C=CC2=[N+]3C(=Cc4ccc(CCC(=O)O)n4[B-]3(F)F)C(C)=C2)c(OCC)c1` [BAA-47a], for which the “Stokes Shift” value (anhydrous DMSO) was 22 nm. Further, under setting [1], the “λmax ABS” value amounted to 589 nm and the “λmax EM” value amounted to 611 nm. Moreover, where the note is “anhydrous DMSO, emission”, the “FWHM (full-width-at half max)” value is given as 47. The “φfl (quantum yield)” value under setting [2] was determined as 0.33.

For `CC1=CC(C=Cc2ccc(OCCBr)cc2)=[N+]2C1=Cc1ccc(CCC(=O)O)n1[B-]2(F)F` [BAA-73a], where the note is “anhydrous DMSO”, the “Stokes Shift” value worked out at 14 nm. Besides, under setting [1], the “λmax ABS” value came to 579 nm and the “λmax EM” value is given as 593 nm. Further, for the setting “anhydrous DMSO, emission”, the “FWHM (full-width-at half max)” value is 46. Under setting [2], the “φfl (quantum yield)” value is 0.55.

As to `CC1=CC(C=Cc2ccc(-c3cccs3)nc2)=[N+]2C1=Cc1ccc(C(=Cc3ccc(-c4cccs4)nc3)CC(=O)O)n1[B-]2(F)F` [BAA-56b], the “Stokes Shift” value (anhydrous DMSO) was 11 nm. Also, under setting [1], the “λmax ABS” value came out at 586 nm and the “λmax EM” value came to 597 nm. Further, under “anhydrous DMSO, emission”, the “FWHM (full-width-at half max)” value amounted to 35. Under setting [2], the “φfl (quantum yield)” value is given as 0.15.

With `CC1=CC(/C=C/c2ccc(-c3ccccc3)cc2)=[N+]2C1=Cc1ccc(CCC(=O)O)n1[B-]2(F)F` [BAA-17a], the “FWHM (full-width-at half max)” value amounted to 42, the “Stokes Shift” value came out at 12 nm, the “λmax ABS” value is 579 nm and the “λmax EM” value was 591 nm. The “φfl (quantum yield)” value is listed as 0.59.

With `CC1=CC(C=Cc2ccc(-c3ccccc3F)o2)=[N+]2C1=Cc1ccc(CCC(=O)O)n1[B-]2(F)F` [BAA-65a], the “Stokes Shift” value (anhydrous DMSO) came out at 16 nm. Moreover, under setting [1], the “λmax ABS” value was found to be 606 nm and the “λmax EM” value stood at 622 nm. Further, the “FWHM (full-width-at half max)” value (anhydrous DMSO, emission) came out at 54. Under setting [2], the “φfl (quantum yield)” value is 0.21.

As for `CC1=CC(C=Cc2ccc(OC(=O)c3ccc(Cl)cc3)cc2)=[N+]2C1=Cc1ccc(CCC(=O)O)n1[B-]2(F)F` [BAA-43a], for the setting “anhydrous DMSO”, the “Stokes Shift” value was 10 nm. Under setting [1], the “λmax ABS” value came out at 569 nm and the “λmax EM” value was determined as 579 nm. Further, the “FWHM (full-width-at half max)” value (anhydrous DMSO, emission) was found to be 31. Besides, the “φfl (quantum yield)” value under setting [2] worked out at 0.45.

Turning to `CC1=CC(C=Cc2cn(CCC(=O)O)c3ccccc23)=[N+]2C1=Cc1ccc(CCC(=O)O)n1[B-]2(F)F` [BAA-30a], where the note is “anhydrous DMSO”, the “Stokes Shift” value is 36 nm. Under setting [1], the “λmax ABS” value was 607 nm and the “λmax EM” value worked out at 643 nm. The “FWHM (full-width-at half max)” value (anhydrous DMSO, emission) is 58. Besides, the “φfl (quantum yield)” value under setting [2] was 0.43.

As for `CC1=CC(C=Cc2cc(-n3ccnc3)ccc2C)=[N+]2C1=Cc1ccc(C(=Cc3cc(-n4ccnc4)ccc3C)CC(=O)O)n1[B-]2(F)F` [BAA-50b], the “Stokes Shift” value (anhydrous DMSO) came out at 9 nm. Further, under setting [1], the “λmax ABS” value amounted to 572 nm and the “λmax EM” value stood at 581 nm. The “FWHM (full-width-at half max)” value (anhydrous DMSO, emission) came out at 34. The “φfl (quantum yield)” value under setting [2] is recorded as 0.12.

Consider `CC1=CC(C=Cc2ccc(-c3cc(Cl)cc(Cl)c3)nc2)=[N+]2C1=Cc1ccc(CCC(=O)O)n1[B-]2(F)F` [BAA-69a], for which the “Stokes Shift” value (anhydrous DMSO) amounted to 12 nm. Moreover, under setting [1], the “λmax ABS” value amounted to 577 nm and the “λmax EM” value is reported as 589 nm. In addition, the “FWHM (full-width-at half max)” value (anhydrous DMSO, emission) is given as 30. Under setting [2], the “φfl (quantum yield)” value was 0.85.

`COc1cc(/C=C/C2=[N+]3C(=Cc4ccc(CCC(=O)O)n4[B-]3(F)F)C(C)=C2)cc(I)c1OC` [BAA-3a]: the “Stokes Shift” value (anhydrous DMSO) is recorded as 10 nm. Under setting [1], the “λmax ABS” value is reported as 569 nm and the “λmax EM” value came out at 579 nm. Besides, the “FWHM (full-width-at half max)” value (anhydrous DMSO, emission) is 31. Under setting [2], the “φfl (quantum yield)” value came out at 0.61.

For `CC1=CC(C=Cc2ccccc2Oc2ccc(C#N)cc2)=[N+]2C1=Cc1ccc(C(=Cc3ccccc3Oc3ccc(C#N)cc3)CC(=O)O)n1[B-]2(F)F` [BAA-35b], the “Stokes Shift” value (anhydrous DMSO) is 9 nm. Also, under setting [1], the “λmax ABS” value is listed as 571 nm and the “λmax EM” value is reported as 580 nm. Besides, under “anhydrous DMSO, emission”, the “FWHM (full-width-at half max)” value was 32. Also, the “φfl (quantum yield)” value under setting [2] was determined as 0.25.
